Source: the NIST ThermoML archive (doi:10.1021/acs.jced.7b00458)

Conditions: 100 kPa, Liquid; for electrical conductivity: Alternating current cell with electrodes; for viscosity: Concentric cylinders viscometry; for mass density: Vibrating tube method

CCCCC[P+](CC)(CC)CC.O=S(=O)([N-]S(=O)(=O)C(F)(F)F)C(F)(F)F
Conditions | electrical conductivity [S/m] | mass density [kg/m3] | viscosity [mPa·s]
298.15 K | 0.21 | 1304 | 85.3
300.15 K | 0.223 | 1302 | 77.43
306.15 K | 0.286 | 1297 | 58.68
312.15 K | 0.358 | 1292 | 45.42
318.15 K | 0.435 | 1287 | 35.82
324.15 K | 0.521 | 1282 | 28.79
330.15 K | 0.612 | 1277 | 23.5
336.15 K | 0.711 | 1272 | 19.46
341.15 K | – | 1268 | 16.79
348.15 K | 0.917 | 1262 | 13.86
355.15 K | – | 1256 | 11.58
361.15 K | 1.17 | 1251 | 10.02
373.15 K | – | 1241 | 7.531

CC[P+](CC)(CC)CCOC.O=S(=O)([N-]S(=O)(=O)C(F)(F)F)C(F)(F)F
Conditions | electrical conductivity [S/m] | mass density [kg/m3] | viscosity [mPa·s]
298.15 K | 0.384 | 1378 | 48.14
300.15 K | 0.411 | 1376 | 44.28
306.15 K | 0.498 | 1370 | 34.95
312.15 K | 0.608 | 1365 | 28.1
318.15 K | 0.719 | 1360 | 22.97
324.15 K | 0.848 | 1354 | 19.04
330.15 K | 0.987 | 1349 | 16.01
336.15 K | 1.13 | 1344 | 13.62
341.15 K | – | 1339 | 11.98
348.15 K | 1.45 | 1333 | 10.15
355.15 K | – | 1327 | 8.692
361.15 K | 1.84 | 1322 | 7.672
373.15 K | – | 1311 | 5.99

CCCC[N+]1(C)CCCCC1.O=S(=O)([N-]S(=O)(=O)C(F)(F)F)C(F)(F)F
Conditions | electrical conductivity [S/m] | mass density [kg/m3] | viscosity [mPa·s]
298.15 K | 0.139 | 1382 | 188.9
300.15 K | 0.153 | 1380 | 168
306.15 K | 0.202 | 1375 | 120.2
312.15 K | 0.264 | 1370 | 88.67
318.15 K | 0.337 | 1365 | 67.13
324.15 K | 0.424 | 1360 | 52.01
330.15 K | 0.519 | 1355 | 41.12
336.15 K | 0.626 | 1349 | 33.12
341.15 K | – | 1345 | 27.98
348.15 K | 0.876 | 1339 | 22.51
355.15 K | – | 1333 | 18.36
361.15 K | 1.19 | 1329 | 15.62
373.15 K | – | 1319 | 11.62

CCCC[N+]1(C)CCCC1.O=S(=O)([N-]S(=O)(=O)C(F)(F)F)C(F)(F)F
Conditions | electrical conductivity [S/m] | mass density [kg/m3] | viscosity [mPa·s]
298.15 K | 0.393 | 1395 | 77.76
300.15 K | 0.423 | 1393 | 71.11
306.15 K | 0.52 | 1388 | 54.97
312.15 K | 0.638 | 1382 | 43.41
318.15 K | 0.772 | 1377 | 34.92
324.15 K | 0.924 | 1372 | 28.56
330.15 K | 1.08 | 1367 | 23.69
336.15 K | 1.26 | 1361 | 19.91
341.15 K | – | 1357 | 17.37
348.15 K | 1.64 | 1351 | 14.53
355.15 K | – | 1345 | 12.31
361.15 K | 2.11 | 1340 | 10.78
373.15 K | – | 1330 | 8.272
